Results published in article PMC9572521, “Synthesis, Docking Studies and Pharmacological Evaluation of Serotoninergic Ligands Containing a 5-Norbornene-2-Carboxamide Nucleus” (Molecules, 2022).
Read-outs that look alike come from different tables or passages of the source.

Assays:
human 5-HT2C receptor = target: T1, human 5-HT2C receptor (Homo sapiens, UniProt P28335); assay: 5-HT2C competition binding assay ([3H]mesulergine, transfected cell membranes); conditions: [3H]mesulergine, human 5-HT2C membranes
T1 sequence (P28335 33-458): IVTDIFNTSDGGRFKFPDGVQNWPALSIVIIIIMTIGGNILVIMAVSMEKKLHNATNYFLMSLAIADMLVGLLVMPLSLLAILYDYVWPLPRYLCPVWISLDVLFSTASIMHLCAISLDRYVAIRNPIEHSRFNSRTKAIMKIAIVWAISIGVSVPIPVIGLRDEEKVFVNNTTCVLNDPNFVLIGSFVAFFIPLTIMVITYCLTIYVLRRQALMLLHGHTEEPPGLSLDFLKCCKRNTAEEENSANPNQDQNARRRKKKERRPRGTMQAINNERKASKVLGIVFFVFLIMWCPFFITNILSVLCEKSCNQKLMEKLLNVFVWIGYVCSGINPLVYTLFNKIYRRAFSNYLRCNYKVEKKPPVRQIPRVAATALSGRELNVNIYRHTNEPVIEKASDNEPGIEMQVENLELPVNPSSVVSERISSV

[1] = system: 5-HT2A receptors (5-HT-induced contractions in the rat ileum); assay: 5-HT-evoked contractions of isolated rat ileum; conditions: for Emax, maximal inhibitory effect on 5-HT-induced contractions in the rat ileum: 5-HT 10^−5 M, compounds 10^−8–10^−5 M
D2 receptor = target: T2, D2 receptor (Rattus norvegicus, UniProt P61169); assay: Functional D2 receptor [35S]GTPγS assay (antagonist mode vs dopamine; basal for agonism); format: biochemical; conditions: against 40 µM dopamine, rat striatal homogenate;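 note: [35S]GTPγS binding counted by scintillation after 60 min at 30 °C, nonspecific binding defined with 100 µM unlabeled GTPγS, inhibition curves fitted by one-site nonlinear regression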
T2 construct: 15μg/mL of striatal homogenate was incubated in triplicate; from tissue; host or cells: rat striatum homogenate

5-HT1A receptor = target: T3, 5-HT1A receptor (Rattus norvegicus, UniProt P19327); assay: Functional 5-HT1A receptor [35S]GTPγS assay (agonist mode); format: biochemical; conditions: [35S]GTPγS; for agonist activity at the 5-HT1A receptor: result in words;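 for all read-outs here: male Sprague-Dawley rat hippocampal membranes incubated 90 min at 37 °C, bound label counted by scintillation after filtration, non-specific binding defined with 100 µM unlabeled GTPγS, one-site curve fit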
T3 construct: 15 μg/mL of hippocampus homogenate was incubated in triplicate with 0.8 nM; from tissue; host or cells: rat hippocampus homogenate
T3 sequence (P19327 1-422): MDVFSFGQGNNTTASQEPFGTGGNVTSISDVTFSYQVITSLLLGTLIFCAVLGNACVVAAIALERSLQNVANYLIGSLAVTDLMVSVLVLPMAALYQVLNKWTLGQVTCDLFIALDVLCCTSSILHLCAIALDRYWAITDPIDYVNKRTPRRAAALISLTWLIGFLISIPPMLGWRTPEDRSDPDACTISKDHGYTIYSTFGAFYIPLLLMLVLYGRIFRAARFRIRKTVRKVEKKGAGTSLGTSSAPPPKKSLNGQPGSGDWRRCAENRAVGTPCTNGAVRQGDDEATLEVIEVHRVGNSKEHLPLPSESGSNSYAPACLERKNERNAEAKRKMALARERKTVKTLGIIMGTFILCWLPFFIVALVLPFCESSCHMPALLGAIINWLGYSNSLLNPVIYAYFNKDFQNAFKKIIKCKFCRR

5-HT2A receptor = 5-HT2A receptor (Rattus norvegicus, UniProt P14842); assay: 5-HT2A competition binding assay ([3H]ketanserin, frontal cortex homogenates); conditions: read-out: 5-HT2A Ki (95% CI)
mice [2] = assay: Elevated plus-maze test (EPM); format: in vivo, mouse; conditions: 5 mg/kg i.p., 60 min before the test
Procedure: The experiments were carried out, in the Experimental Medicine Center of Medical University of Lublin, on six-week-old naive male Swiss mice, weighing 24–30 g. The mice were housed in cages, five individuals per cage in an environmentally controlled rooms (ambient temperature 22 ± 1 °C; relative humidity 50–60%; 12 h light/dark cycle, lights on at 8:00). Standard laboratory food(LSM-Agropol-Motycz, Lublin, Poland) and filtered water were available ad libitum. All the experimental procedures were carried out, according to the National Institute of Health Guidelines for the Care and Use of Laboratory Animals and to the European Community Council Directive for the Care and Use of Laboratory Animals of 22 September 2010 (2010/63/EU) and approved by the Local Ethics Committee for Animal Experimentation in Lublin. The investigated compounds (Norbo-4, Norbo-8, Norbo-10, Norbo-14, Norbo-18 and Norbo-20) in all tests were administered intraperitoneally (i.p.), dissolved in dimethyl sulfoxide (DMSO, final concentration of 0.1%) and then diluted by aqueous solution of 0.5% methylcellulose (tylose) and injected 60 min before the tests. […] All compounds were given in a volume of 10 mL/kg to mice. The control animals received an equivalent volume of the solvent at the respective time before the tests. All the experiments were conducted in the light phase between 09.00 a.m. and 14.00 p.m. The experiments were performed by an observer unaware of the treatment administered. The EPM studies were carried out on mice according to the method of Lister. The EPM apparatus was made of plexiglass and consisted of two open (30 × 5 cm) and two enclosed (30 × 5 × 15 cm) arms. The arms extended from a central platform of 5 × 5 cm. The apparatus was mounted on a plexiglass base, raising it 38.5 cm above the floor, and illuminated by a red light. The test consisted of placing a mouse in the center of the apparatus (facing an open arm) and allowing it to freely explore. The number of entries into the open arms and the time spent in these arms were scored for a 5 min test period. An entry was defined as placing all four paws within the boundaries of the arm. The following measures were obtained from the test: the total number of arm entries; the percentage of arm entries into the open arms; and the time spent in the open arms expressed as a percentage of the time spent in both the open and closed arms. Anxiolytic activity was indicated by increases in the time spent in open arms and in the number of open arm entries. The total number of entries into either type of arm was used additionally as a measure of overall motor activity.

mice [3] = assay: Forced swim test (FST, Porsolt's test); format: in vivo, mouse; conditions: 15 mg/kg i.p., 60 min before the test
Procedure: The experiments were carried out, in the Experimental Medicine Center of Medical University of Lublin, on six-week-old naive male Swiss mice, weighing 24–30 g. The mice were housed in cages, five individuals per cage in an environmentally controlled rooms (ambient temperature 22 ± 1 °C; relative humidity 50–60%; 12 h light/dark cycle, lights on at 8:00). Standard laboratory food(LSM-Agropol-Motycz, Lublin, Poland) and filtered water were available ad libitum. All the experimental procedures were carried out, according to the National Institute of Health Guidelines for the Care and Use of Laboratory Animals and to the European Community Council Directive for the Care and Use of Laboratory Animals of 22 September 2010 (2010/63/EU) and approved by the Local Ethics Committee for Animal Experimentation in Lublin. The investigated compounds (Norbo-4, Norbo-8, Norbo-10, Norbo-14, Norbo-18 and Norbo-20) in all tests were administered intraperitoneally (i.p.), dissolved in dimethyl sulfoxide (DMSO, final concentration of 0.1%) and then diluted by aqueous solution of 0.5% methylcellulose (tylose) and injected 60 min before the tests. […] All compounds were given in a volume of 10 mL/kg to mice. The control animals received an equivalent volume of the solvent at the respective time before the tests. All the experiments were conducted in the light phase between 09.00 a.m. and 14.00 p.m. The experiments were performed by an observer unaware of the treatment administered. The experiment was carried out according to the method of Porsolt et al.. Mice were individually placed in a glass cylinder (25 cm high; 10 cm in diameter) containing water maintained at 23–25 °C, and were left there for 6 min. The total duration of immobility was recorded during the last 4 min of a 6-min test session. A mouse was regarded as immobile when it remained floating on the water, making only small movements to keep its head above the water.

[4] = read-out: D2 receptor antagonistic activity IC50 (95% CI)
[5] = read-out: D2 receptor antagonistic activity pIC50 (M ± SEM) (converted)
[6] = rat hippocampus homogenate, ± SEM, read-out: 5-HT1A Receptor G-Protein Stimulation pEC50 (converted)
[7] = rat hippocampus homogenate, read-out: 5-HT1A Receptor G-Protein Stimulation EC50 (95% CI)
[8] = rat hippocampus homogenate, ± SEM

Chain of 5-HT2A receptor (P14842 whole entry): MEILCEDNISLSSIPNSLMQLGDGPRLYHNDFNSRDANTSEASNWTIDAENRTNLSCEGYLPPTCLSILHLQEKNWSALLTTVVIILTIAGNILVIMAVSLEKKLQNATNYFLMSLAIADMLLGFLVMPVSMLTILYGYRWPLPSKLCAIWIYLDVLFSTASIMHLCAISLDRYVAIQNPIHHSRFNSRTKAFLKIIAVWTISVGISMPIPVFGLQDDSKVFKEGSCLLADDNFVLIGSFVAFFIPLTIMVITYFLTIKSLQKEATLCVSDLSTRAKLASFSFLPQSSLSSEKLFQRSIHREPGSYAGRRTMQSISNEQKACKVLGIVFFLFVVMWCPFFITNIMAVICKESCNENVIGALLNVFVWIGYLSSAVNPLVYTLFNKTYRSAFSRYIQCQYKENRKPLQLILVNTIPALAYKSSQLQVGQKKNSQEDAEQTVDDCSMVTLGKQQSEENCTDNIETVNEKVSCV
T2 sequence (P61169 whole entry): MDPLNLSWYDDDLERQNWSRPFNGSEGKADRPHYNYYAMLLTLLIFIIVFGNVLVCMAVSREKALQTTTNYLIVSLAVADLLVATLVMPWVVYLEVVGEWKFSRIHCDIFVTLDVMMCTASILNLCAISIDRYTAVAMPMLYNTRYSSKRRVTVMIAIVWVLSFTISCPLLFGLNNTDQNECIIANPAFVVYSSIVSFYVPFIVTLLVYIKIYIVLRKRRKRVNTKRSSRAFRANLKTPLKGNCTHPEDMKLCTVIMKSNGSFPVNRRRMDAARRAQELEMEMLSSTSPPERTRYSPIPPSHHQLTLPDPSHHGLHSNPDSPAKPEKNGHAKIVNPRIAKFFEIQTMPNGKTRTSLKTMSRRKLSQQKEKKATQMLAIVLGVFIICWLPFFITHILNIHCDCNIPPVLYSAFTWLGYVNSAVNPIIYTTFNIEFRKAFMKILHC

| Compound | Ki (human 5-HT2C receptor; read-out: 5-HT2C Ki (95% CI)) | Emax, maximal inhibitory effect on 5-HT-induced contractions in the rat ileum [1] | IC50 (D2 receptor; [4]) | 5-HT1A Receptor G-Protein Stimulation Emax (%) ± SEM (5-HT1A receptor; rat hippocampus homogenate) | EC50 (5-HT1A receptor; [6]) | Ki (5-HT2A receptor) | other results |
| --- | --- | --- | --- | --- | --- | --- | --- |
| COc1ccccc1N1CCN(CCCNC(=O)C2CC3C=CC2C3)CC1 (single isomer, unassigned) [Norbo-5, Exo-N-(3-(4-(2-methoxyphenyl)piperazin-1-yl)propyl)bicyclo[2.2.1]hept-5-ene-2-carboxamide] | 1.82 µM | 15.42% | 33.4 µM | 140 ± 25.2 ^&& % | 10 µM | 0.0457 µM | IC50 (D2 receptor; [5]): 33.9 µM |
| O=C(c1ccc(F)cc1)C1CCN(CCn2c(=O)[nH]c3ccccc3c2=O)CC1 [Ketanserin, reference compound] | – | – | – | – | – | – | effect on contractions induced by 5-HT ([1]; preliminary experiments, 0.1 µM): depressed the contractions induced by 5-HT |
| O=C(NCCCN1CCN(c2ccccc2F)CC1)C1CC2C=CC1C2 (stereo not drawn) [Norbo-16, endo.-N-(3-(4-(2-fluorophenyl)piperazin-1-yl)propyl)bicyclo[2.2.1]hept-5-ene-2-carboxamide] | 1.54 µM | 23.47% | 41.5 µM | 182 ± 5.5 **^,# % | – | 0.0733 µM | EC50 (5-HT1A receptor; [7]): 0.939 µM |
| O=C(NCCCN1CCN(c2ccc(F)cc2)CC1)C1CC2C=CC1C2 (stereo not drawn) [Norbo-17, Exo-N-(3-(4-(4-fluorophenyl)piperazin-1-yl)propyl)bicyclo[2.2.1]hept-5-ene-2-carboxamide] | 2.36 µM | 32.50% | 59.5 µM | 122 ± 2.0 ^&&& % | 0.631 µM | 0.0227 µM | Ki (human 5-HT2C receptor; ± SEM, read-out: 5-HT2C pKi (converted)): 2.4 µM; IC50 (D2 receptor; [5]): 60.3 µM; EC50 (5-HT1A receptor; [7]): 0.553 µM |
| O=C(NCCCN1CCN(c2cccc(C(F)(F)F)c2)CC1)C1CC2C=CC1C2 (stereo not drawn) [Norbo-19, Exo-N-(3-(4-(3-(trifluoromethyl)phenyl)piperazin-1-yl)propyl)bicyclo[2.2.1]hept-5-ene-2-carboxamide] | 0.167 µM | 39.00% | 144 µM | – | 0.316 µM | 0.0426 µM | Emax (5-HT1A receptor; rat hippocampus homogenate, read-out: 5-HT1A Receptor G-Protein Stimulation Emax (%) ± SEM): 162 ± 2.1% |
| O=C(NCCCN1CCN(c2cccc(C(F)(F)F)c2)CC1)C1CC2C=CC1C2 (stereo not drawn) [Norbo-20, endo-N-(3-(4-(3-(trifluoromethyl)phenyl)piperazin-1-yl)propyl)bicyclo[2.2.1]hept-5-ene-2-carboxamide] | 1.95 µM | 21.79% | 52.7 µM | 167 ± 1.4 % | 0.2 µM | 0.0229 µM | IC50 (D2 receptor; [5]): 56.2 µM |
| O=C(NCCCN1CCN(C(=O)c2ccco2)CC1)C1CC2C=CC1C2 (stereo not drawn) [Norbo-27, Exo-N-(3-(4-(furan-2-carbonyl)piperazin-1-yl)propyl)bicyclo[2.2.1]hept-5-ene-2-carboxamide] | 1.78 µM | – | 66.6 µM | no activity | – | 1.13 µM | 5-HT1A Receptor G-Protein Stimulation EC50 (95% CI, nM) (5-HT1A receptor; rat hippocampus homogenate): no activity; 5-HT1A Receptor G-Protein Stimulation pEC50 (5-HT1A receptor; [8]): no activity; agonist activity at the 5-HT1A receptor (5-HT1A receptor): no agonist activity |
| O=C(NCCCN1CCN(C(=O)c2ccco2)CC1)C1CC2C=CC1C2 (stereo not drawn) [Norbo-28, endo-N-(3-(4-(furan-2-carbonyl)piperazin-1-yl)propyl)bicyclo[2.2.1]hept-5-ene-2-carboxamide] | 3.93 µM | – | – | – | – | 1.07 µM | D2 receptor antagonistic activity IC50 (95% CI, µM) (D2 receptor): no activity; D2 receptor antagonistic activity pIC50 (M ± SEM) (D2 receptor): no activity; 5-HT1A Receptor G-Protein Stimulation pEC50 (5-HT1A receptor; [8]): no activity; agonist activity at the 5-HT1A receptor (5-HT1A receptor): no agonist activity |
| O=C1CC2(CCCC2)CC(=O)N1CCCCN1CCN(c2ncccn2)CC1 [buspirone, reference compound] | – | – | – | – | – | – | percentage of the open arm entries (EPM) (mice [2]): significant increase; percentage of time spent in open arms (EPM) (mice [2]): significant increase; percentage of the open arm entries (EPM) (mice [2]; listed as Buspirone): increased the percentage of entries into the open arms; percentage of time spent in open arms (EPM) (mice [2]; listed as Buspirone): prolonged the time |
| CN[C@H]1CC[C@@H](c2ccc(Cl)c(Cl)c2)c2ccccc21 [sertraline, reference compound] | – | – | – | – | – | – | immobility time in FST (mice [3]): significant reduction in the immobility time; immobility time in FST (mice [3]; listed as Sertraline): significantly shortened the immobility time |
| NC1=N[C@H](O)[C@H]2[C@H]3O[C@]4(O)O[C@@H]([C@@H](O)[C@@]2(N1)[C@@H]4O)[C@]3(O)CO [tetrodotoxin, reference compound] | – | – | – | – | – | – | effect on contractions induced by 5-HT [1]: did not affect the contractions by 5-HT |
